Measured values: publication PMC10763615, “Identification and engineering of potent cyclic peptides with selective or promiscuous binding through biochemical profiling and bioinformatic data analysis” (RSC Chemical Biology, 2023)
Positions of bridges follow the written chain, without caps; N, C: chain ends. Residues, ends and D or L forms follow the SMILES beside them.

Legend:
Format in all cases: binding
FGF-R4 ECD = target: T1, FGF-R4 ECD (Homo sapiens, UniProt P22455); assay: single concentration BLI of crude peptides; conditions: crude T18 selection 1 (1:1:1) peptides, single concentration BLI (Table S4); read-out: KD (4)
T1 construct: DNA constructs for the extracellular domain (ECD) of human FGF-; HPC4 (C); made in house; host or cells: HEK 293-6E
T1 sequence (P22455 22-369 limits assumed): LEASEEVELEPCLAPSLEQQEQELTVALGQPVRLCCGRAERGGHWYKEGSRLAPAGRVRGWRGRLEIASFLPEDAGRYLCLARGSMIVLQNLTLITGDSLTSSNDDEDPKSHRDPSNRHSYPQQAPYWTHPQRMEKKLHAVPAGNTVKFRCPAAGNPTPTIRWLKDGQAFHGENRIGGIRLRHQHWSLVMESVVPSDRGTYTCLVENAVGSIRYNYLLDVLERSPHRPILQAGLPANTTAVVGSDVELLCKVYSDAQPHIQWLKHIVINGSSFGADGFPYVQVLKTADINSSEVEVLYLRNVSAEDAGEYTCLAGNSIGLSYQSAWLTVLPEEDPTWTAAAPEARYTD
Experimental: (§1) KD affinity binding measurements were obtained by biolayer interferometry (BLI) instruments (Fortebio Octet HTX, or Sartorius Octet RH16 using either 8 or 16 channel mode.
For single concentration binding experiments, 50 μM peptide stocks in folding buffer were diluted 1:50 in mRNA display selection buffer (PBS pH7.4 supplemented with 0.05% Tween-20 and 0.01% BSA) in either a 96 well black plate, or a 384 well tilted bottom microplate (ForteBio). Biotinylated FGF-R protein was loaded onto Streptavidin-functionalised biosensors (ForteBio) and immersed into ~1 μM peptide to obtain association kinetics curves. Dissociation kinetics curves were obtained by subsequent immersion of ligand-associated loaded sensors into a 1:50 dilution of folding buffer in mRNA display selection buffer. Fitted KD data was adjusted for concentration as determined by UPLC-CAD. […]

FGF-R1C ECD = target: T2, FGF-R1C ECD (Homo sapiens, UniProt P11362); assay: biochemical; parameters: DNA constructs for the extracellular domain (ECD) of human FGF-; HPC4 (C); made in house; host or cells: HEK 293-6E
T2 sequence (P11362 22-376 limits assumed): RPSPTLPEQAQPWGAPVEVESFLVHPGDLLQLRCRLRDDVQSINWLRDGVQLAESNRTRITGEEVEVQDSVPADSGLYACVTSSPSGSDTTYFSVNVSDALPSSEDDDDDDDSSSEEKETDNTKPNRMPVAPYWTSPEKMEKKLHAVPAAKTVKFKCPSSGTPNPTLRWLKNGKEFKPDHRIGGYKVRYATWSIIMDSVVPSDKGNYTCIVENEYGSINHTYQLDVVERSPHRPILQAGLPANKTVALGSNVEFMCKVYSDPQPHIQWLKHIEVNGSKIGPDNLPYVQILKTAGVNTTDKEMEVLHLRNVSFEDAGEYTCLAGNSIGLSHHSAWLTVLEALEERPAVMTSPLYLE
Experimental: as §1
(§2) For single concentration binding experiments, 50 μM peptide stocks in folding buffer were diluted 1:50 in mRNA display selection buffer (PBS pH7.4 supplemented with 0.05% Tween-20 and 0.01% BSA) in either a 96 well black plate, or a 384 well tilted bottom microplate (ForteBio). Biotinylated FGF-R protein was loaded onto Streptavidin-functionalised biosensors (ForteBio) and immersed into ~1 μM peptide to obtain association kinetics curves. Dissociation kinetics curves were obtained by subsequent immersion of ligand-associated loaded sensors into a 1:50 dilution of folding buffer in mRNA display selection buffer. Fitted KD data was adjusted for concentration as determined by UPLC-CAD.
(§3) For accurate multi-concentration KD determination, dilution series of each peptide were made, and association and dissociation kinetics curves were obtained as above for each concentration to fit a multi-point KD binding model. Data collection and analysis was performed using the Octet Instrument Control […]
(§4) concentration assay kinetics curves shown in supplementary Figure S 19-24.

FGF-R3C ECD = target: T3, FGF-R3C ECD (Homo sapiens, UniProt P22607); assay: biochemical; parameters: DNA constructs for the extracellular domain (ECD) of human FGF-; HPC4 (C); made in house; host or cells: HEK 293-6E
T3 sequence (P22607 23-375 limits assumed): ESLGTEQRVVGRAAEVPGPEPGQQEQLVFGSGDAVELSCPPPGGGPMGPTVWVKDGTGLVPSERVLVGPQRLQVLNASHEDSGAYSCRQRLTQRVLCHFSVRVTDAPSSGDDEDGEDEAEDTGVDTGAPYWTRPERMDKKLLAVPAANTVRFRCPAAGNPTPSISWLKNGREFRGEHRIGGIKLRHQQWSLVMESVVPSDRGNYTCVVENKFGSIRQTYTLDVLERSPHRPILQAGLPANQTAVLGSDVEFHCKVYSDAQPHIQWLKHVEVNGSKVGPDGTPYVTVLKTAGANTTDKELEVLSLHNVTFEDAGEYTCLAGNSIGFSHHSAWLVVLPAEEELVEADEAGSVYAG
Experimental: as §1, §2, §3, §4

`CSCC[C@H](NC(C)=O)C(=O)N[C@H]1CSSC[C@@H](C(=O)NCC(=O)N[C@@H](CO)C(=O)NCC(=O)N[C@@H](CO)C(=O)N[C@@H](CC(=O)O)C(=O)N[C@@H](Cc2ccc(O)cc2)C(=O)N[C@@H](CCCCN)C(=O)N[C@@H](CC(=O)O)C(=O)N[C@@H](CC(=O)O)C(=O)N[C@@H](CC(=O)O)C(=O)N[C@@H](CC(=O)O)C(=O)N[C@@H](CCCCN)C(N)=O)NC(=O)[C@H](Cc2c[nH]c3ccccc23)NC(=O)[C@H](CC(C)C)NC(=O)[C@H](CC(C)C)NC(=O)[C@H](Cc2ccc(O)cc2)NC(=O)[C@H](Cc2ccc(O)cc2)NC(=O)[C@H](Cc2ccccc2)NC(=O)[C@H](CC(C)C)NC(=O)[C@H](Cc2c[nH]cn2)NC(=O)[C@H](CCC(=O)O)NC(=O)[C@H](CCCCN)NC(=O)[C@H](C)NC1=O` (Ac-MCAKEHLFYYLLWCGSGSDYKDDDDK-NH2; disulfide 2-14) was tested, and the Kd (FGF-R4 ECD) was 41 nM, the Kd (FGF-R1C ECD) was > 10000 nM and the Kd (FGF-R3C ECD) was > 10000 nM.
For `CC[C@H](C)[C@@H]1NC(=O)[C@H](CC(C)C)NC(=O)[C@H](Cc2ccccc2)NC(=O)[C@H](Cc2ccc(O)cc2)NC(=O)[C@H](CCCCN)NC(=O)[C@H](C)NC(=O)[C@@H](NC(=O)[C@H](CCSC)NC(C)=O)CSSC[C@@H](C(=O)NCC(=O)N[C@@H](CO)C(=O)NCC(=O)N[C@@H](CO)C(=O)N[C@@H](CC(=O)O)C(=O)N[C@@H](Cc2ccc(O)cc2)C(=O)N[C@@H](CCCCN)C(=O)N[C@@H](CC(=O)O)C(=O)N[C@@H](CC(=O)O)C(=O)N[C@@H](CC(=O)O)C(=O)N[C@@H](CC(=O)O)C(=O)N[C@@H](CCCCN)C(N)=O)NC(=O)[C@H](CCC(N)=O)NC(=O)[C@H](CCC(N)=O)NC(=O)[C@H](Cc2ccc(O)cc2)NC(=O)[C@H](C)NC(=O)[C@H](CCCNC(=N)N)NC(=O)[C@H](Cc2c[nH]c3ccccc23)NC1=O` (Ac-MCAKYFLIWRAYQQCGSGSDYKDDDDK-NH2; disulfide 2-15), the Kd (FGF-R4 ECD) was 10 nM, the Kd (FGF-R1C ECD) was > 10000 nM and the Kd (FGF-R3C ECD) was > 10000 nM.
In the case of `CSCC[C@H](NC(C)=O)C(=O)N[C@H]1CSSC[C@@H](C(=O)NCC(=O)N[C@@H](CO)C(=O)NCC(=O)N[C@@H](CO)C(=O)N[C@@H](CC(=O)O)C(=O)N[C@@H](Cc2ccc(O)cc2)C(=O)N[C@@H](CCCCN)C(=O)N[C@@H](CC(=O)O)C(=O)N[C@@H](CC(=O)O)C(=O)N[C@@H](CC(=O)O)C(=O)N[C@@H](CC(=O)O)C(=O)N[C@@H](CCCCN)C(N)=O)NC(=O)[C@H](Cc2c[nH]cn2)NC(=O)[C@H](CC(C)C)NC(=O)[C@H](C(C)C)NC(=O)[C@H](CCC(N)=O)NC(=O)[C@H](Cc2c[nH]c3ccccc23)NC(=O)[C@H](Cc2ccc(O)cc2)NC(=O)[C@H](CCCNC(=N)N)NC(=O)[C@H](C(C)C)NC(=O)[C@H](Cc2ccc(O)cc2)NC(=O)[C@H](Cc2ccc(O)cc2)NC(=O)[C@H](C)NC(=O)[C@H](CC(=O)O)NC1=O` (Ac-MCDAYYVRYWQVLHCGSGSDYKDDDDK-NH2; disulfide 2-15), the Kd (FGF-R4 ECD) is reported as 36 nM, the Kd (FGF-R1C ECD) is reported as > 10000 nM and the Kd (FGF-R3C ECD) is reported as > 10000 nM.
With `CC[C@H](C)[C@@H]1NC(=O)[C@H](Cc2ccc(O)cc2)NC(=O)[C@H](Cc2c[nH]c3ccccc23)NC(=O)[C@H](CCCCN)NC(=O)[C@H](C(C)C)NC(=O)[C@H](Cc2ccccc2)NC(=O)[C@H](CCCCN)NC(=O)[C@H](CC(=O)O)NC(=O)[C@@H](NC(=O)[C@H](CCSC)NC(C)=O)CSSC[C@@H](C(=O)NCC(=O)N[C@@H](CO)C(=O)NCC(=O)N[C@@H](CO)C(=O)N[C@@H](CCC(=O)O)C(=O)N[C@@H](CCC(=O)O)C(=O)NCC(=O)N[C@@H](CO)C(=O)NCC(=O)N[C@@H](CO)C(=O)N[C@@H](CC(=O)O)C(=O)N[C@@H](Cc2ccc(O)cc2)C(=O)N[C@@H](CCCCN)C(=O)N[C@@H](CC(=O)O)C(=O)N[C@@H](CC(=O)O)C(=O)N[C@@H](CC(=O)O)C(=O)N[C@@H](CC(=O)O)C(=O)N[C@@H](CCCCN)C(N)=O)NC(=O)[C@H](Cc2c[nH]cn2)NC(=O)[C@H](CCCNC(=N)N)NC(=O)[C@H](Cc2ccccc2)NC(=O)[C@H](C(C)C)NC1=O` (Ac-MCDKFVKWYIVFRHCGSGSEEGSGSDYKDDDDK-NH2; disulfide 2-15) the Kd (FGF-R4 ECD) was 1 nM, the Kd (FGF-R1C ECD) was > 10000 nM and the Kd (FGF-R3C ECD) was > 10000 nM.
With `CC[C@H](C)[C@@H]1NC(=O)[C@H](CCCCN)NC(=O)[C@H](Cc2ccc(O)cc2)NC(=O)[C@H](Cc2c[nH]c3ccccc23)NC(=O)[C@H](CC(C)C)NC(=O)[C@H](C(C)C)NC(=O)[C@H]([C@@H](C)O)NC(=O)[C@H](Cc2ccc(O)cc2)NC(=O)[C@H](CC(C)C)NC(=O)[C@H](CC(=O)O)NC(=O)[C@@H](NC(=O)[C@H](CCSC)NC(C)=O)CSSC[C@@H](C(=O)NCC(=O)N[C@@H](CO)C(=O)NCC(=O)N[C@@H](CO)C(=O)N[C@@H](CC(=O)O)C(=O)N[C@@H](Cc2ccc(O)cc2)C(=O)N[C@@H](CCCCN)C(=O)N[C@@H](CC(=O)O)C(=O)N[C@@H](CC(=O)O)C(=O)N[C@@H](CC(=O)O)C(=O)N[C@@H](CC(=O)O)C(=O)N[C@@H](CCCCN)C(N)=O)NC(=O)[C@H](CCC(=O)O)NC(=O)[C@H](CCCCN)NC(=O)[C@H](CCC(N)=O)NC1=O` (Ac-MCDLYTVLWYKIQKECGSGSDYKDDDDK-NH2; disulfide 2-16) the Kd (FGF-R4 ECD) was 19 nM, the Kd (FGF-R1C ECD) was 21 nM and the Kd (FGF-R3C ECD) was > 10000 nM.
`CC[C@H](C)[C@@H]1NC(=O)[C@H](Cc2c[nH]c3ccccc23)NC(=O)[C@H](Cc2c[nH]c3ccccc23)NC(=O)[C@H](CCCNC(=N)N)NC(=O)[C@H](C)NC(=O)[C@H](Cc2ccc(O)cc2)NC(=O)[C@H](CCC(N)=O)NC(=O)[C@H](C)NC(=O)[C@H](CCCNC(=N)N)NC(=O)[C@H]([C@@H](C)CC)NC(=O)[C@H](CO)NC(=O)[C@H](CC(=O)O)NC(=O)[C@@H](NC(=O)[C@H](CCSC)NC(C)=O)CSSC[C@@H](C(=O)NCC(=O)N[C@@H](CO)C(=O)NCC(=O)N[C@@H](CO)C(=O)N[C@@H](CC(=O)O)C(=O)N[C@@H](Cc2ccc(O)cc2)C(=O)N[C@@H](CCCCN)C(=O)N[C@@H](CC(=O)O)C(=O)N[C@@H](CC(=O)O)C(=O)N[C@@H](CC(=O)O)C(=O)N[C@@H](CC(=O)O)C(=O)N[C@@H](CCCCN)C(N)=O)NC1=O` (Ac-MCDSIRAQYARWWICGSGSDYKDDDDK-NH2; disulfide 2-15) was tested, and the Kd (FGF-R4 ECD) was 183 nM, the Kd (FGF-R1C ECD) was > 10000 nM and the Kd (FGF-R3C ECD) was > 10000 nM.
In the case of `CC[C@H](C)[C@@H]1NC(=O)[C@H]([C@@H](C)O)NC(=O)[C@H](C(C)C)NC(=O)[C@H](Cc2ccc(O)cc2)NC(=O)[C@H](Cc2c[nH]c3ccccc23)NC(=O)[C@H](CC(=O)O)NC(=O)[C@@H](NC(=O)[C@H](CCSC)NC(C)=O)CSSC[C@@H](C(=O)NCC(=O)N[C@@H](CO)C(=O)NCC(=O)N[C@@H](CO)C(=O)N[C@@H](CC(=O)O)C(=O)N[C@@H](Cc2ccc(O)cc2)C(=O)N[C@@H](CCCCN)C(=O)N[C@@H](CC(=O)O)C(=O)N[C@@H](CC(=O)O)C(=O)N[C@@H](CC(=O)O)C(=O)N[C@@H](CC(=O)O)C(=O)N[C@@H](CCCCN)C(N)=O)NC(=O)[C@H](CCCCN)NC(=O)[C@H](CCCCN)NC(=O)[C@H](CC(C)C)NC(=O)[C@H](C(C)C)NC(=O)[C@H](CCCCN)NC(=O)[C@H](Cc2ccc(O)cc2)NC1=O` (Ac-MCDWYVTIYKVLKKCGSGSDYKDDDDK-NH2; disulfide 2-15), the Kd (FGF-R4 ECD) is reported as 8 nM, the Kd (FGF-R1C ECD) is reported as > 10000 nM and the Kd (FGF-R3C ECD) is reported as > 10000 nM.
